Source: US20070087988A1, “Hematopoietic progenitor kinase 1 for modulation of an immune response” (New York University, priority 2005, published 2007)
Entries after “also recorded” stand apart in the source; their conditions may differ.

Test system: HPK1
Assay: HPK1 immune complex in vitro kinase (IVK) assay, endogenous HPK1 from treated Jurkat cells
Format: cell-based, human
Settings: Lck (JCaM1), ZAP-70 (p116), Lat (ANJ-3), SLP-76 (J14) deficient lines, 10 pM PGE2

SMILES: CCCCC[C@H](O)/C=C/[C@H]1[C@H](O)CC(=O)[C@@H]1C/C=C\CCCC(=O)O [PGE2, prostaglandin E2]
- HPK1 kinase activity upon PGE2 stimulation in signaling-mutant Jurkat lines: did not interfere with the ability of HPK1 to respond; also recorded: all Jurkat cell lines could activate HPK1 kinase activity
